Experimental data from patent US5567692A, “9-[(substituted glycyl) amido)]-6-demethyl-6-deoxytetracyclines” (priority 1995, dated 1996).
Values after ≈ are worked out from the molar mass of the structure shown. Counter-ions that a name gives are not always drawn. Like-named read-outs stand apart in the source and are kept apart here.

Columns and labels:
S. aureus UBMS 90-3 = assay: MIC, agar dilution; assay type: cell-based; settings: S. aureus UBMS 90-3
S. aureus IVES 1983 = assay: MIC, agar dilution; assay type: cell-based
E. coli J2175 = assay: MIC, agar dilution; assay type: cell-based
S. aureus ROSE (MP) = assay: MIC, agar dilution; assay type: cell-based
E. faecalis ATCC 29212 = assay: MIC, agar dilution; assay type: cell-based; settings: E. faecalis ATCC 29212
[1] = system: E. coli UBMS 89-2 Tet sens.; assay: MIC, agar dilution; assay type: cell-based
S. aureus NEMC 8769 = assay: MIC, agar dilution; assay type: cell-based
[2] = system: X. maltophilia NEMC 87210; assay: MIC, agar dilution; assay type: cell-based
Enterococcus 12201 = assay: MIC, agar dilution; assay type: cell-based
E. coli J3272 Tet C = assay: microbe, parasite or virus in culture; assay type: cell-based
E. coli PRP1 Tet A = assay: microbe, parasite or virus in culture; assay type: cell-based
S. aureus UBMS 88-4 = assay: MIC, agar dilution; assay type: cell-based
S. aureus IVES 2943 = assay: MIC, agar dilution; assay type: cell-based
S. aureus ATCC 29213 = assay: MIC, agar dilution; assay type: cell-based; settings: Staphylococcus aureus, ATCC29213, 18 h, S. aureus ATCC 29213; read-out: MIC
S. marcescens FPOR 8733 = assay: MIC, agar dilution; assay type: cell-based
[3] = system: Ps. aeruginosa ATCC 27853; assay: MIC, agar dilution; assay type: cell-based; settings: Ps. aeruginosa ATCC 27853
[4] = system: Staphylococcus aureus strain Smith (tetracycline sensitive); assay: Acute lethal infection in mice, S. aureus Smith; assay type: in vivo; settings: for ED50: mice, S. aureus Smith (Sens), 7 day survival; for in vivo activity (in words): tested intravenously against the minocycline sensitive organism S. aureus Smith
[5] = system: S. aureus UBMS 88-7 Tet K; assay: microbe, parasite or virus in culture; assay type: cell-based
E. coli BAJ9003 IMP MUT = assay: microbe, parasite or virus in culture; assay type: cell-based; settings: E. coli BAJ9003 IMP MUT
[6] = system: E. coli MC 4100 TNIOC Tet B; assay: microbe, parasite or virus in culture; assay type: cell-based
S. aureus SMITH (MP) = assay: MIC, agar dilution; assay type: cell-based
E. coli UBMS 88-1 Tet B = assay: microbe, parasite or virus in culture; assay type: cell-based
E. coli UBMS 90-4 Tet M = assay: microbe, parasite or virus in culture; assay type: cell-based; settings: Escherichia coli, UBMS904TETM, 18 h
[7] = system: S. aureus UBMS 90-2 Tet M; assay: microbe, parasite or virus in culture; assay type: cell-based; settings: Staphylococcus aureus, UBMS902TETM, 18 h
[8] = system: S. hemolyticus AVHAH 88-3; assay: MIC, agar dilution; assay type: cell-based
E. coli #311 (MP) = assay: MIC, agar dilution; assay type: cell-based; settings: Escherichia coli, 18 h
E. coli UBMS 90-5 = assay: microbe, parasite or virus in culture; assay type: cell-based; settings: E. coli UBMS 90-5
[9] = system: S. aureus UBMS 90-1 Tet M; assay: microbe, parasite or virus in culture; assay type: cell-based; settings: Staphylococcus aureus, UBMS901TETM, 18 h
E. coli J3272 Tet D = assay: microbe, parasite or virus in culture; assay type: cell-based; settings: monohydrochloride
E. coli ATCC 25922 = assay: MIC, agar dilution; assay type: cell-based
E. coli UBMS 89-1 Tet M = assay: microbe, parasite or virus in culture; assay type: cell-based
[10] = system: S. aureus UBMS 88-5 Tet M; assay: microbe, parasite or virus in culture; assay type: cell-based; settings: Staphylococcus aureus, UBMS885TETM, 18 h
[11] = Staphylococcus aureus, NEMC8769, 18 h, read-out: MIC
[12] = Staphylococcus aureus, IVES1983, 18 h
[13] = Escherichia coli, 18 h, read-out: MIC
[14] = Staphylococcus aureus, 18 h, read-out: MIC
[15] = Escherichia coli, J3272TETC, 18 h
[16] = Escherichia coli, PRP1TETA, 18 h
[17] = Serratia marcescens, FPOR8733, 18 h, read-out: MIC
[18] = Escherichia coli, UBMS905, 18 h, read-out: MIC
[19] = Pseudomonas aeruginosa, ATCC27853, 18 h, read-out: MIC
[20] = Staphylococcus aureus, UBMS887TETK, 18 h
[21] = Escherichia coli, UBMS881TETB, 18 h

## CN(C)CC(=O)Nc1ccc2c(c1O)C(=O)C1=C(O)[C@]3(O)C(=O)C(C(N)=O)=C(O)[C@@H](N(C)C)C3CC1C2 (stereo partly drawn) [BB, [4S-(4alpha,12aalpha)]-4-(Dimethylamino)-9-[[(dimethylamino)acetyl]amino]-1,4,4a,5,5a,6,11,12a-octahydro-3,10,12,12a-tetrahydroxy-1,11-dioxo-2-naphthacenecarboxamide]
S. aureus UBMS 90-3
  MIC: 0.06 µg/mL (≈ 0.117 µM)
S. aureus IVES 1983; Staphylococcus aureus, IVES1983, 18 h, S. aureus IVES 1983, read-out: MIC
  MIC: 0.5 µg/mL (≈ 0.972 µM)
E. coli J2175
  MIC: 0.25 µg/mL (≈ 0.486 µM)
S. aureus ROSE (MP); Staphylococcus aureus, 18 h
  MIC: 2 µg/mL (≈ 3.89 µM)
E. faecalis ATCC 29212
  MIC: 0.06 µg/mL (≈ 0.117 µM)
[1]; E. coli UBMS 89-2 Tet sens.
  MIC: 0.25 µg/mL (≈ 0.486 µM)
S. aureus NEMC 8769; [11]
  MIC: < 0.015 µg/mL
[2]; X. maltophilia NEMC 87210
  MIC: 1 µg/mL (≈ 1.94 µM)
Enterococcus 12201; Enterococcus 12201
  MIC: 0.06 µg/mL (≈ 0.117 µM)
E. coli J3272 Tet C
  MIC: 0.25 µg/mL (≈ 0.486 µM)
E. coli PRP1 Tet A
  MIC: 0.5 µg/mL (≈ 0.972 µM)
S. aureus UBMS 88-4; S. aureus UBMS 88-4
  MIC: 0.06 µg/mL (≈ 0.117 µM)
S. aureus IVES 2943; S. aureus IVES 2943
  MIC: 0.5 µg/mL (≈ 0.972 µM)
S. aureus ATCC 29213
  MIC: 0.3 µg/mL (≈ 0.583 µM)
S. marcescens FPOR 8733; Serratia marcescens, FPOR8733, 18 h
  MIC: 2 µg/mL (≈ 3.89 µM)
[3]
  MIC: 8 µg/mL (≈ 15.5 µM)
[4]; Intraveneous, 10080 min
  ED50: 0.5 to 1 mg/kg
[4]; Oral, 10080 min
  ED50: 8 to 16 mg/kg
[4]
  in vivo activity (in words): very good in vivo activity
[5]
  MIC: 0.5 µg/mL (≈ 0.972 µM)
E. coli BAJ9003 IMP MUT
  MIC: no growth
[6]; E. coli MC 4100 TNIOC Tet B
  MIC: 0.25 µg/mL (≈ 0.486 µM)
S. aureus SMITH (MP); S. aureus SMITH (MP)
  MIC: 0.06 µg/mL (≈ 0.117 µM)
E. coli UBMS 88-1 Tet B; E. coli UBMS 88-1 Tet B
  MIC: 0.25 µg/mL (≈ 0.486 µM)

## CN(C)[C@@H]1C(O)=C(C(N)=O)C(=O)[C@@]2(O)C(O)=C3C(=O)c4c(ccc(NC(=O)CN5CCCC5)c4O)CC3CC12 (stereo partly drawn) [D, [7S-(7alpha,10aalpha)]-N-[9-(Aminocarbonyl)-7-(dimethylamino)-5,5a,6,6a,7-10,10a,12-octahydro-1,8,10a,11-tetrahydroxy-10,12-dioxo-2-naphthacenyl]-1-pyrrolidineacetamide dihydrochloride]
S. aureus IVES 1983; [12]
  MIC: 1 µg/mL
E. coli J2175; [13]
  MIC: 0.25 µg/mL
S. aureus ROSE (MP); [14]
  MIC: 2 µg/mL
[1]; Escherichia coli, 18 h
  MIC: 0.25 µg/mL
S. aureus NEMC 8769; Staphylococcus aureus, NEMC8769, 18 h
  MIC: 0.06 µg/mL
[2]; Stenotrophomonas maltophilia, NEMC87210, 18 h
  MIC: 1 µg/mL
E. coli J3272 Tet C; [15]
  MIC: 0.25 µg/mL
E. coli PRP1 Tet A; [16]
  MIC: 0.25 µg/mL
E. coli UBMS 90-4 Tet M
  MIC: 0.25 µg/mL
S. aureus IVES 2943; Staphylococcus aureus, IVES2943, 18 h
  MIC: 1 µg/mL
[7]
  MIC: 0.25 µg/mL
[8]; Streptococcus pyogenes, AVHAH883, 18 h
  MIC: 0.25 µg/mL
S. marcescens FPOR 8733; [17]
  MIC: 2 µg/mL
E. coli #311 (MP)
  MIC: 0.25 µg/mL
E. coli UBMS 90-5; [18]
  MIC: 0.25 µg/mL
[3]; [19]
  MIC: 16 µg/mL
[4]; Staphylococcus aureus, iv, 168 h, Intraveneous, read-out: ED50
  ED50: 1 to 2 mg/kg
[4]; Staphylococcus aureus, po, 168 h, Oral, read-out: ED50
  ED50: > 16 mg/kg
[4]
  in vivo activity (in words): very good in vivo activity
[5]; [20]
  MIC: 0.5 µg/mL
[9]
  MIC: 0.25 µg/mL
[6]; Escherichia coli, 18 h
  MIC: 0.25 µg/mL
E. coli UBMS 88-1 Tet B; [21]
  MIC: 0.25 µg/mL

## CN(C)CC(=O)Nc1ccc2c(c1O)C(=O)C1=C(O)[C@]3(O)C(=O)C(C(N)=O)=C(O)[C@@H](N(C)C)C3CC1C2 (stereo partly drawn) [DD, [4S-(4alpha,12aalpha)]-4-(Dimethylamino)-9-[[(dimethylamino)acetyl]amino]-1,4,4a,5,5a,6,11,12a-octahydro-3,10,12,12a-tetrahydroxy-1,11-dioxo-2-naphthacenecarboxamide monohydrochloride]
S. aureus UBMS 90-3; monohydrochloride
  MIC: 0.06 µg/mL
S. aureus IVES 1983; S. aureus IVES 1983, monohydrochloride
  MIC: 1 µg/mL
E. coli J3272 Tet D
  MIC: 0.25 µg/mL
S. aureus ROSE (MP); monohydrochloride
  MIC: 4 µg/mL
E. faecalis ATCC 29212; monohydrochloride
  MIC: 0.06 µg/mL
S. aureus NEMC 8769; monohydrochloride
  MIC: 0.03 µg/mL
E. coli ATCC 25922; monohydrochloride
  MIC: 0.25 µg/mL
[2]; X. maltophilia NEMC 87210, monohydrochloride
  MIC: 2 µg/mL
E. coli J3272 Tet C; monohydrochloride
  MIC: 1 µg/mL
E. coli PRP1 Tet A; monohydrochloride
  MIC: 1 µg/mL
S. aureus IVES 2943; S. aureus IVES 2943, monohydrochloride
  MIC: 1 µg/mL
[8]; S. hemolyticus AVHAH 88-3, monohydrochloride
  MIC: 0.25 µg/mL
S. marcescens FPOR 8733
  MIC: 4 µg/mL
E. coli #311 (MP)
  MIC: 0.25 µg/mL
E. coli UBMS 90-5
  MIC: 0.25 µg/mL
[3]; monohydrochloride
  MIC: 8 µg/mL
[4]; Intraveneous, monohydrochloride, 10080 min
  ED50: 0.67 mg/kg
[4]; Oral, monohydrochloride, 10080 min
  ED50: 12 mg/kg
[4]
  in vivo activity (in words): very good in vivo activity
E. coli UBMS 89-1 Tet M; monohydrochloride
  MIC: 0.5 µg/mL
[5]; monohydrochloride
  MIC: 1 µg/mL

## CC(C)CNCC(=O)Nc1ccc2c(c1O)C(=O)C1=C(O)[C@]3(O)C(=O)C(C(N)=O)=C(O)[C@@H](N(C)C)C3CC1C2 (stereo partly drawn) [M, [4S-(4alpha,12aalpha)]-4-(Dimethylamino)-1,4,4a,5,5a,6,11,12a-octahydro-3,10,12,12a-tetrahydroxy-9-[[[(2-methylpropyl)amino]acetyl]amino]-1,11-dioxo-2-naphthacenecarboxamide dihydrochloride]
S. aureus IVES 1983; [12]
  MIC: 2 µg/mL
E. coli J2175; [13]
  MIC: 1 µg/mL
S. aureus ROSE (MP); [14]
  MIC: 8 µg/mL
[1]; Escherichia coli, 18 h
  MIC: 1 µg/mL
S. aureus NEMC 8769; [11]
  MIC: 8 µg/mL
E. coli ATCC 25922; Escherichia coli, ATCC25922, 18 h
  MIC: 0.5 µg/mL
[2]; Stenotrophomonas maltophilia, NEMC87210, 18 h, X. maltophilia NEMC 87210, read-out: MIC
  MIC: 2 µg/mL
Enterococcus 12201; Enterococcus, 12201, 18 h
  MIC: 0.5 µg/mL
E. coli J3272 Tet C; [15]
  MIC: 1 µg/mL
E. coli PRP1 Tet A; [16]
  MIC: 1 µg/mL
E. coli UBMS 90-4 Tet M
  MIC: 0.5 µg/mL
S. aureus UBMS 88-4; Staphylococcus aureus, UBMS884, 18 h
  MIC: 0.5 µg/mL
S. aureus IVES 2943; Staphylococcus aureus, IVES2943, 18 h, S. aureus IVES 2943, read-out: MIC
  MIC: 4 µg/mL
[7]
  MIC: 0.5 µg/mL
[8]; Streptococcus pyogenes, AVHAH883, 18 h, S. hemolyticus AVHAH 88-3, read-out: MIC
  MIC: 2 µg/mL
S. marcescens FPOR 8733; [17]
  MIC: 8 µg/mL
E. coli #311 (MP)
  MIC: 1 µg/mL
E. coli UBMS 90-5; [18]
  MIC: 1 µg/mL
[3]; [19]
  MIC: 32 µg/mL
E. coli UBMS 89-1 Tet M; Escherichia coli, UBMS891TETM, 18 h
  MIC: 0.5 µg/mL
[5]; [20]
  MIC: 2 µg/mL
[9]
  MIC: 0.5 µg/mL
[6]; Escherichia coli, 18 h
  MIC: 1 µg/mL
S. aureus SMITH (MP); Staphylococcus aureus, 18 h
  MIC: 0.5 µg/mL
E. coli UBMS 88-1 Tet B; [21]
  MIC: 1 µg/mL
[10]
  MIC: 0.5 µg/mL
